What was measured:
[1] = system: BT474 (human breast carcinoma); assay: In vitro tumor cell proliferation assay (Cell Titer-Glo luminescent cell viability), BT474; type: cell-based; details: BT-474, 72 h, BT474 cells, 72 hours of drug exposure, ATP luminescence readout, read-out: IC50, anti-proliferative activity (inhibition of cell proliferation)
Procedure, shortened: (§1)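 A431 or BT474 cells were exposed 72 h at 37°C to serially diluted compounds (final 100 μM down to 64 pM, 0.1% DMSO). Viable cells were read by ATP luminescence (CellTiter-Glo) and IC50 values derived.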

[2] = system: A431 cells (human epidermoid carcinoma); assay: In vitro tumor cell proliferation assay (Cell Titer-Glo luminescent cell viability), A431; type: cell-based; details: A-431, 72 h, 72 hours of drug exposure, ATP luminescence readout, read-out: IC50, anti-proliferative activity (inhibition of cell proliferation)
Procedure, shortened: as §1

| Structure (SMILES) | IC50 [1] | IC50 [2] |
| --- | --- | --- |
| CN1CCN(C(=O)Cn2cc3c(n2)CCc2c-3sc3ncnc(Nc4ccc(OCc5cccc(F)c5)c(Cl)c4)c23)CC1 [Example 183, N-{3-chloro-4-[(3-fluorobenzyl)oxy]phenyl}-2-[2-(4-methylpiperazin-1-yl)-2-oxoethyl]-4,5-dihydro-2H-pyrimido[5′,4′:4,5]thieno[2,3-e]indazol-6-amine] | ≤ 1 µM | ≤ 5 µM |
| CN(C)C(=O)Cn1cc2c(n1)CCc1c-2sc2ncnc(Nc3ccc(OCc4cccc(F)c4)c(Cl)c3)c12 [Example 184, 2-[6-({3-chloro-4-[(3-fluorobenzyl)oxy]phenyl}amino)-4,5-dihydro-2H-pyrimido[5′,4′:4,5]thieno[2,3-e]indazol-2-yl]-N,N-dimethylacetamide] | ≤ 1 µM | ≤ 5 µM |
| CCN1CCN(C(=O)Cn2cc3c(n2)CCc2c-3sc3ncnc(Nc4ccc(OCc5cccc(F)c5)c(Cl)c4)c23)CC1 [Example 185, N-{3-chloro-4-[(3-fluorobenzyl)oxy]phenyl}-2-[2-(4-ethylpiperazin-1-yl)-2-oxoethyl]-4,5-dihydro-2H-pyrimido[5′,4′:4,5]thieno[2,3-e]indazol-6-amine] | ≤ 1 µM | ≤ 5 µM |
| COCCN1CCN(C(=O)Cn2cc3c(n2)CCc2c-3sc3ncnc(Nc4ccc(OCc5cccc(F)c5)c(Cl)c4)c23)CC1 [Example 186, N-{3-chloro-4-[(3-fluorobenzyl)oxy]phenyl}-2-{2-[4-(2-methoxyethyl)piperazin-1-yl]-2-oxoethyl}-4,5-dihydro-2H-pyrimido[5′,4′:4,5]thieno[2,3-e]indazol-6-amine] | ≤ 1 µM | ≤ 5 µM |
| O=C(Cn1cc2c(n1)CCc1c-2sc2ncnc(Nc3ccc(OCc4cccc(F)c4)c(Cl)c3)c12)N(CCO)CCO [Example 187, 2-[6-({3-chloro-4-[(3-fluorobenzyl)oxy]phenyl}amino)-4,5-dihydro-2H-pyrimido[5′,4′:4,5]thieno[2,3-e]indazol-2-yl]-N,N-bis(2-hydroxyethyl)acetamide] | ≤ 1 µM | ≤ 50 µM |
| CNC(=O)Cn1cc2c(n1)CCc1c-2sc2ncnc(Nc3ccc(OCc4cccc(F)c4)c(Cl)c3)c12 [Example 188, 2-[6-({3-chloro-4-[(3-fluorobenzyl)oxy]phenyl}amino)-4,5-dihydro-2H-pyrimido[5′,4′:4,5]thieno[2,3-e]indazol-2-yl]-N-methylacetamide] | ≤ 1 µM | ≤ 50 µM |
| O=C(Cn1cc2c(n1)CCc1c-2sc2ncnc(Nc3ccc(OCc4cccc(F)c4)c(Cl)c3)c12)NCCN1CCOCC1 [Example 189, 2-[6-({3-chloro-4-[(3-fluorobenzyl)oxy]phenyl}amino)-4,5-dihydro-2H-pyrimido[5′,4′:4,5]thieno[2,3-e]indazol-2-yl]-N-(2-morpholin-4-ylethyl)acetamide] | ≤ 1 µM | ≤ 50 µM |
| CCOC(=O)Cn1ncc2c1CCc1c-2sc2ncnc(Nc3ccc(OCc4cccc(F)c4)c(Cl)c3)c12 [Example 190, ethyl [6-({3-chloro-4-[(3-fluorobenzyl)oxy]phenyl}amino)-4,5-dihydro-3H-pyrimido[5′,4′:4,5]thieno[2,3-e]indazol-3-yl]acetate] | ≤ 1 µM | ≤ 50 µM |
| CN(C)c1ccc(NC(=O)Cn2ncc3c2CCc2c-3sc3ncnc(Nc4ccc(OCc5cccc(F)c5)c(Cl)c4)c23)cc1 [Example 192, 2-[6-({3-chloro-4-[(3-fluorobenzyl)oxy]phenyl}amino)-4,5-dihydro-3H-pyrimido[5′,4′:4,5]thieno[2,3-e]indazol-3-yl]-N-[4-(dimethylamino)phenyl]acetamide] | ≤ 5 µM | ≤ 50 µM |
| CN(C)CCNC(=O)Cn1ncc2c1CCc1c-2sc2ncnc(Nc3ccc(OCc4cccc(F)c4)c(Cl)c3)c12 [Example 193, 2-[6-({3-chloro-4-[(3-fluorobenzyl)oxy]phenyl}amino)-4,5-dihydro-3H-pyrimido[5′,4′:4,5]thieno[2,3-e]indazol-3-yl]-N-[2-(dimethylamino)ethyl]acetamide] | ≤ 1 µM | ≤ 50 µM |
| O=C(Cn1ncc2c1CCc1c-2sc2ncnc(Nc3ccc(OCc4cccc(F)c4)c(Cl)c3)c12)Nc1ccccn1 [Example 195, 2-[6-({3-chloro-4-[(3-fluorobenzyl)oxy]phenyl}amino)-4,5-dihydro-3H-pyrimido[5′,4′:4,5]thieno[2,3-e]indazol-3-yl]-N-pyridin-2-ylacetamide] | ≤ 1 µM | ≤ 50 µM |
| O=C(Cn1ncc2c1CCc1c-2sc2ncnc(Nc3ccc(OCc4cccc(F)c4)c(Cl)c3)c12)NCCN1CCOCC1 [Example 197, 2-[6-({3-chloro-4-[(3-fluorobenzyl)oxy]phenyl}amino)-4,5-dihydro-3H-pyrimido[5′,4′:4,5]thieno[2,3-e]indazol-3-yl]-N-(2-morpholin-4-ylethyl)acetamide] | ≤ 1 µM | ≤ 50 µM |
| CS(=O)(=O)CCNC(=O)Cn1ncc2c1CCc1c-2sc2ncnc(Nc3ccc(OCc4cccc(F)c4)c(Cl)c3)c12 [Example 204, 2-[6-({3-chloro-4-[(3-fluorobenzyl)oxy]phenyl}amino)-4,5-dihydro-3H-pyrimido[5′,4′:4,5]thieno[2,3-e]indazol-3-yl]-N-[2-(methylsulfonyl)ethyl]acetamide] | ≤ 1 µM | ≤ 50 µM |
| COCCNC(=O)Cn1ncc2c1CCc1c-2sc2ncnc(Nc3ccc(OCc4cccc(F)c4)c(Cl)c3)c12 [Example 207, 2-[6-({3-chloro-4-[(3-fluorobenzyl)oxy]phenyl}amino)-4,5-dihydro-3H-pyrimido[5′,4′:4,5]thieno[2,3-e]indazol-3-yl]-N-(2-methoxyethyl)acetamide] | ≤ 1 µM | ≤ 50 µM |
| O=C(Cn1ncc2c1CCc1c-2sc2ncnc(Nc3ccc(OCc4cccc(F)c4)c(Cl)c3)c12)NCCO [Example 209, 2-[6-({3-chloro-4-[(3-fluorobenzyl)oxy]phenyl}amino)-4,5-dihydro-3H-pyrimido[5′,4′:4,5]thieno[2,3-e]indazol-3-yl]-N-(2-hydroxyethyl]acetamide] | ≤ 1 µM | ≤ 50 µM |

Other lines, results leading:

| IC50 [1] | IC50 [2] | Structure (SMILES) |
| --- | --- | --- |
| ≤ 50 µM | ≤ 50 µM | O=C(O)Cn1ncc2c1CCc1c-2sc2ncnc(Nc3ccc(OCc4cccc(F)c4)c(Cl)c3)c12 [Example 191, [6-({3-chloro-4-[(3-fluorobenzyl)oxy]phenyl}amino)-4,5-dihydro-3H-pyrimido[5′,4′:4,5]thieno[2,3-e]indazol-3-yl]acetic acid] |
| ≤ 1 µM | ≤ 50 µM | CNC(=O)Cn1ncc2c1CCc1c-2sc2ncnc(Nc3ccc(OCc4cccc(F)c4)c(Cl)c3)c12 [Example 196, 2-[6-({3-chloro-4-[(3-fluorobenzyl)oxy]phenyl}amino)-4,5-dihydro-3H-pyrimido[5′,4′:4,5]thieno[2,3-e]indazol-3-yl]-N-methylacetamide] |
| ≤ 1 µM | ≤ 50 µM | CCOC(=O)N1CCN(C(=O)Cn2ncc3c2CCc2c-3sc3ncnc(Nc4ccc(OCc5cccc(F)c5)c(Cl)c4)c23)CC1 [Example 198, ethyl 4-{[6-({3-chloro-4-[(3-fluorobenzyl)oxy]phenyl}amino)-4,5-dihydro-3H-pyrimido[5′,4′:4,5]thieno[2,3-e]indazol-3-yl]acetyl}piperazine-1-carboxylate] |
| ≤ 1 µM | ≤ 50 µM | O=C(Cn1ncc2c1CCc1c-2sc2ncnc(Nc3ccc(OCc4cccc(F)c4)c(Cl)c3)c12)N1CCOCC1 [Example 199, N-{3-chloro-4-[(3-fluorobenzyl)oxy]phenyl}-3-(2-morpholin-4-yl-2-oxoethyl)-4,5-dihydro-3H-pyrimido[5′,4′:4,5]thieno[2,3-e]indazol-6-amine] |
| ≤ 1 µM | ≤ 50 µM | O=C(Cn1ncc2c1CCc1c-2sc2ncnc(Nc3ccc(OCc4cccc(F)c4)c(Cl)c3)c12)NCCN1CCNCC1 [Example 200, 2-[6-({3-chloro-4-[(3-fluorobenzyl)oxy]phenyl}amino)-4,5-dihydro-3H-pyrimido[5′,4′:4,5]thieno[2,3-e]indazol-3-yl]-N-(2-piperazin-1-ylethyl)acetamide] |
| ≤ 1 µM | ≤ 5 µM | O=C(Cn1ncc2c1CCc1c-2sc2ncnc(Nc3ccc(OCc4cccc(F)c4)c(Cl)c3)c12)N1CCNCC1 [Example 201, N-{3-chloro-4-[(3-fluorobenzyl)oxy]phenyl}-3-(2-oxo-2-piperazin-1-ylethyl)-4,5-dihydro-3H-pyrimido[5′,4′:4,5]thieno[2,3-e]indazol-6-amine] |
| ≤ 1 µM | ≤ 5 µM | CCN1CCN(C(=O)Cn2ncc3c2CCc2c-3sc3ncnc(Nc4ccc(OCc5cccc(F)c5)c(Cl)c4)c23)CC1 [Example 202, N-{3-chloro-4-[(3-fluorobenzyl)oxy]phenyl}-3-[2-(4-ethylpiperazin-1-yl)-2-oxoethyl]-4,5-dihydro-3H-pyrimido[5′,4′:4,5]thieno[2,3-e]indazol-6-amine] |
| ≤ 1 µM | ≤ 50 µM | COCCN1CCN(C(=O)Cn2ncc3c2CCc2c-3sc3ncnc(Nc4ccc(OCc5cccc(F)c5)c(Cl)c4)c23)CC1 [Example 203, N-{3-chloro-4-[(3-fluorobenzyl)oxy]phenyl}-3-{2-[4-(2-methoxyethyl)piperazin-1-yl]-2-oxoethyl}-4,5-dihydro-3H-pyrimido[5′,4′:4,5]thieno[2,3-e]indazol-6-amine] |
| ≤ 1 µM | ≤ 5 µM | CN1CCN(C(=O)Cn2ncc3c2CCc2c-3sc3ncnc(Nc4ccc(OCc5cccc(F)c5)c(Cl)c4)c23)CC1 [Example 205, N-{3-chloro-4-[(3-fluorobenzyl)oxy]phenyl}-3-[2-(4-methylpiperazin-1-yl)-2-oxoethyl]-4,5-dihydro-3H-pyrimido[5′,4′:4,5]thieno[2,3-e]indazol-6-amine] |
| ≤ 1 µM | ≤ 5 µM | O=C(Cn1ncc2c1CCc1c-2sc2ncnc(Nc3ccc(OCc4cccc(F)c4)c(Cl)c3)c12)N1CC[C@@H](O)C1 [Example 206, (3R)-1-{[6-({3-chloro-4-[(3-fluorobenzyl)oxy]phenyl}amino)-4,5-dihydro-3H-pyrimido[5′,4′:4,5]thieno[2,3-e]indazol-3-yl]acetyl}pyrrolidin-3-ol] |

Source: US8207172B2 (Bayer Intellectual Property GmbH, priority 2004, dated 2012)
